US20240350597A1, “PROTEASE INHIBITORS” (University College Dublin, priority 2023, published 2024)

Tests used:
[1] = system: SARS-CoV-2 Spike pseudoparticles; type: cell-based; details: 12.5 μM, A549-ACE2-TMPRSS2 cells
[2] = target: T1, TMPRSS2 (Homo sapiens, UniProt O15393); assay: Kinetic analysis of TMPRSS2 inhibition under pseudo first-order conditions; type: biochemical; details: room temperature, TMPRSS2 0.1 μM
T1 construct: purchased Cusabio Technology
Protocol: For kinetic analysis of TMPRSS2 inhibition, second order inhibition rate constants were determined under pseudo first-order conditions using a range of serpin concentrations, and with TMPRSS2 buffer and substrate detailed above. Reactions were performed at room temperature and residual activity was determined at intervals over a 10 min incubation with a molar excess of serpin over protease. Concentration ranges were 0.12 to 0.44 μM for B3-TMP and 1.0 to 4 μM for A1AT. The apparent first order rate constant kobs for each concentration was calculated from the slope of the natural log of residual activity over time (−kobs). These values were plotted against inhibitor concentration and linear regression analysis of this plot gave the second order inhibition rate constant k2, with standard error determined.

[3] = system: mammalian trypsin; assay: Protease inhibition assay, trypsin; type: biochemical; details: 10 min preincubation, A1AT compared with B3-TMP
Protocol: (§1) Proteases were incubated with a 1:5 molar excess of serpin and residual activity was determined by cleavage of fluorescent substrates. All assays were carried out at room temperature in 96-well plates in a total volume of 100 μL. Residual proteolytic activity was measured using a SpectraMax M3 Microplate Reader (Molecular Devices, Inc), using the appropriate buffer and synthetic fluorogenic peptide substrate: Cathepsin L, Z-FR-AMC (10 μM), 50 mM Na-Acetate, 100 mM NaCl, 1 mM EDTA, pH 5.5; Chymotrypsin, Z-AAPF-AMC (5 μM), PBS, 1 mg/ml BSA; Elastase, Met-O-Suc-AAPV-AMC (10 μM), 50 mM Tris, 120 mM NaCl, pH 8.0, 1 mg/ml BSA; Furin, Boc-RVRR-AMC (50 μM) 20 mM Tris, 1 mM CaCl2), 0.5% Brij-35, pH 9; TMPRSS2, Boc-QAR-AMC (80 μM), PBS; Trypsin, Z-FR-AMC (10 μM), 50 mM Tris, 0.2 mM DTT, 1 mg/ml BSA. The excitation and emission wavelengths used were 380 nm and 460 nm respectively. All assays were performed in triplicate.
(§2) As an indication of target protease selectivity, both serpins were tested with mammalian trypsin, chymotrypsin and elastase, in addition to TMPRSS2. A short preincubation time of 10 minutes prior to addition of fluorogenic substrate was used and residual activity determined.

[4] = system: pancreatic elastase; assay: Protease inhibition assay, elastase; type: biochemical; details: 10 min preincubation, A1AT compared with B3-TMP
Protocol: as §1, §2

[5] = system: chymotrypsin; assay: Protease inhibition assay, chymotrypsin; type: biochemical; details: 10 min preincubation, A1AT compared with B3-TMP
Protocol: as §1, §2

[6] = target: T1, TMPRSS2; type: biochemical; details: 5:1 serpin:protease ratio, 10 min incubation, substrate Boc-QAR-AMC

T1 sequence (O15393 whole entry): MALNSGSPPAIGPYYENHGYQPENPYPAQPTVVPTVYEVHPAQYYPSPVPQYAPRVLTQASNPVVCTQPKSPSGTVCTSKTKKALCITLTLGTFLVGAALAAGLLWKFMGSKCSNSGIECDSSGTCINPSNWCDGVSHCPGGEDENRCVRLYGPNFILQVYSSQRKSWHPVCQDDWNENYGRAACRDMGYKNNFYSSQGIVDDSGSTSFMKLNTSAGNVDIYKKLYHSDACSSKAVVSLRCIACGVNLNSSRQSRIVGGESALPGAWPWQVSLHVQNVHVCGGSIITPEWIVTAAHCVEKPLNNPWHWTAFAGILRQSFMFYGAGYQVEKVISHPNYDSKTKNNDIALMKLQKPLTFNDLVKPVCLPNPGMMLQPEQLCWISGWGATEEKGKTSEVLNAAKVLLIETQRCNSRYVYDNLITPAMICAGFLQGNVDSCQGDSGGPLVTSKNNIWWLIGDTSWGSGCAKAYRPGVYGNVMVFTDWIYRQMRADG

## alpha-1-antitrypsin [A1AT]
[1]
  inhibition of pseudoparticle entry: 40%
[2]
  second order inhibition rate constant k2 of TMPRSS2 inhibition: (4.8±0.55)×10^2 M^−1 s^−1
[3]
  trypsin inhibition (in words): more effective inhibitor
[4]
  pancreatic elastase inhibition (in words): more effective inhibitor
[5]
  chymotrypsin inhibition (in words): more effective inhibitor
[6]
  inhibition of TMPRSS2: 15%
